Measured values: patent US12391679B2, “Benzamide-substituted bicyclic imidazo- and pyrazolo-fused -pyridine, -pyrimide, and -pyridazine compounds for treatment of inflammatory diseases” (ONCO3R Therapeutics BV, priority 2019, dated 2025)

What was measured:
[1] = system: LPS-induced TNFα in monocyte-derived macrophages; experiment: MdM assay: LPS-triggered TNFα (ELISA); format: cell-based, human; conditions: Macrophage; human MdM; LPS 200 ng/mL; supernatant after 20 h; inhibition of TNFα; read-out: TNFα EC50
In short: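 TNFα secretion quantified by streptavidin-HRP/luminol sandwich ELISA in supernatants collected 20 h after LPS (200 ng/mL). Macrophages derived from magnetically isolated human CD14+ monocytes were used at day 10, with compound added 1 h before LPS; final DMSO 0.2%.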

SIK1 = biological target: T1, SIK1 (Homo sapiens, UniProt P57059); experiment: ADP-Glo kinase assay, SIK1; format: biochemical
T1 construct: purchased Carna Biosciences 02-131
T1 sequence (P57059 whole entry): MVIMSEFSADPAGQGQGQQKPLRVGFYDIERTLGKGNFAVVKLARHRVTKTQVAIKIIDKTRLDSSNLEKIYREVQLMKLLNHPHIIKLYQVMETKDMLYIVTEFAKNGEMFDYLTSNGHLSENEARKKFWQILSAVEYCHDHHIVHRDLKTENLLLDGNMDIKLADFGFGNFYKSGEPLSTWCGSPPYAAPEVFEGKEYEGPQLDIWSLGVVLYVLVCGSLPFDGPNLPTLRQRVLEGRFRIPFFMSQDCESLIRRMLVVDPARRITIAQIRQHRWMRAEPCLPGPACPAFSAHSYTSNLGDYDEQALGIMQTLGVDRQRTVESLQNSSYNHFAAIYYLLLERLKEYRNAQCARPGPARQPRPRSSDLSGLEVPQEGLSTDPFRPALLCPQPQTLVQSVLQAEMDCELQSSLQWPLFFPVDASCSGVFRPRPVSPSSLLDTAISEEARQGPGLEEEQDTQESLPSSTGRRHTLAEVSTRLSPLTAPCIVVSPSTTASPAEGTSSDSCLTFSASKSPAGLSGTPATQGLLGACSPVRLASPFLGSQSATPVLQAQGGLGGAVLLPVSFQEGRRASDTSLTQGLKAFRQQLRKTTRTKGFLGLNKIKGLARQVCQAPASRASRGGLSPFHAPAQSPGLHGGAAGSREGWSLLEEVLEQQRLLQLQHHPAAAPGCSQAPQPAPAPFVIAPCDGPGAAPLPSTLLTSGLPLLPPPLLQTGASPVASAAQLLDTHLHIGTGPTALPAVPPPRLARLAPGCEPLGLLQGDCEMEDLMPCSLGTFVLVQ
In short: (§1)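 Kinase reactions ran 120 min at room temperature after ATP addition to enzyme-substrate mix. Remaining ATP was depleted (40 min) and ADP converted to ATP for luciferase detection (30 min), signal rising with activity. Final 1% DMSO and 10 μM staurosporine served as negative and positive controls.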

SIK2 = biological target: T2, SIK2 (Homo sapiens, UniProt Q9H0K1); experiment: ADP-Glo kinase assay, SIK2; format: biochemical
T2 construct: purchased ThermoFisher Scientific PV4792
T2 sequence (Q9H0K1 whole entry): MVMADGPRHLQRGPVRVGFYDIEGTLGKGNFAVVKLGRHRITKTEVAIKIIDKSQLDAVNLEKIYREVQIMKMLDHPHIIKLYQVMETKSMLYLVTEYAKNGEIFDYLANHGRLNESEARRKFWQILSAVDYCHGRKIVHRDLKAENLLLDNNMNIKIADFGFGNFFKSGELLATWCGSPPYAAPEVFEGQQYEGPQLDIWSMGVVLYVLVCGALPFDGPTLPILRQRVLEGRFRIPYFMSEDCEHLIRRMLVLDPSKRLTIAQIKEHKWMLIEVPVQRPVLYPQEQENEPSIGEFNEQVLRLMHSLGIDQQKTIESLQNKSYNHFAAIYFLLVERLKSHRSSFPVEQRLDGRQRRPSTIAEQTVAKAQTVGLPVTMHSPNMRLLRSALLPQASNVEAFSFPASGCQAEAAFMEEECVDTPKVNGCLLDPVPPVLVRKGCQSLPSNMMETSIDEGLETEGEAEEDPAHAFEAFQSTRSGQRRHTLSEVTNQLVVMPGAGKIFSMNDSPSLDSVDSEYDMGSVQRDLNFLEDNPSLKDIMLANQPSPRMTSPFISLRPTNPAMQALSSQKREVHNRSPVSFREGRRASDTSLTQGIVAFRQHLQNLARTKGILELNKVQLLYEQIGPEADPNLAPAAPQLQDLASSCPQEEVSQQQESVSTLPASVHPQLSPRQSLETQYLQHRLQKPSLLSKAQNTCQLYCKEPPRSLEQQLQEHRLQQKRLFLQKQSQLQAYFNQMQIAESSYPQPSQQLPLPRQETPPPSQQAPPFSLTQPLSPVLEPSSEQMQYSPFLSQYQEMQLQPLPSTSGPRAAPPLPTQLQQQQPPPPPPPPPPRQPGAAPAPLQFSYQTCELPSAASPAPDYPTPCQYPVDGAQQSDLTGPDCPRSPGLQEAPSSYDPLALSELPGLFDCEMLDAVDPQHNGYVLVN
In short: as §1

Structure (SMILES)	EC50 [1] [nM]	IC50 (SIK1) [nM]	IC50 (SIK2) [nM]
COc1cc(-c2cnn3cc(C4CCOCC4)cnc23)cc(OC(F)F)c1C(=O)NC1CC1 [Cpd 95, N-cyclopropyl-2-(difluoromethoxy)-6-methoxy-4-(6-tetrahydropyran-4-ylpyrazolo[1,5-a]pyrimidin-3-yl)benzamide]	1000 to 5000	> 500	100 to 500
COc1cc(-c2cnc3cc(C4(C#N)CCOCC4)ccn23)cc(OC)c1C(=O)NCC(F)(F)F [Cpd 107, 4-[7-(4-cyanotetrahydropyran-4-yl)imidazo[1,2-a]pyridin-3-yl]-2,6-dimethoxy-N-(2,2,2-trifluoroethyl)benzamide]	1000 to 5000	> 500	> 500
COC(=O)C1(c2ccn3c(-c4cc(OC)c(C(=O)NC5CC5)c(OC(F)F)c4)cnc3c2)CC1 [Cpd 113, methyl 1-[3-[4-(cyclopropylcarbamoyl)-3-(difluoromethoxy)-5-methoxy-phenyl]imidazo[1,2-a]pyridin-7-yl]cyclopropanecarboxylate]	100 to 1000	> 500	> 500
COc1cc(-c2cnc3cc(C4(C#N)CCOCC4)ccn23)cc(OC(F)F)c1C(=O)NC1CC1 [Cpd 116, 4-[7-(4-cyanotetrahydropyran-4-yl)imidazo[1,2-a]pyridin-3-yl]-N-cyclopropyl-2-(difluoromethoxy)-6-methoxy-benzamide]	1000 to 5000	> 500	> 500
COc1cc(-c2cnc3cc(C4(C#N)COC4)ccn23)cc(OC(F)F)c1C(=O)NC1CC1 [Cpd 117, 4-[7-(3-cyanooxetan-3-yl)imidazo[1,2-a]pyridin-3-yl]-N-cyclopropyl-2-(difluoromethoxy)-6-methoxy-benzamide]	100 to 1000	> 500	> 500
COc1cc(-c2cnc3cc(C4(C#N)CCOC4)ccn23)cc(OC(F)F)c1C(=O)NC1CC1 (stereo not drawn) [Cpd 123, 4-[7-(3-cyanotetrahydrofuran-3-yl)imidazo[1,2-a]pyridin-3-yl]-N-cyclopropyl-2-(difluoromethoxy)-6-methoxy-benzamide]	1000 to 5000	> 500	> 500
COc1cc(-c2cnc3cc(C(C)(O)C(F)(F)F)ccn23)cc(OC(F)F)c1C(=O)NC1CC1 (stereo not drawn) [Cpd 129, N-cyclopropyl-2-(difluoromethoxy)-6-methoxy-4-[7-(2,2,2-trifluoro-1-hydroxy-1-methyl-ethyl)imidazo[1,2-a]pyridin-3-yl]benzamide]	100 to 1000	> 500	> 500
COc1cc(-c2cnc3cc(C4(C#N)COC4)ccn23)cc(OC(F)F)c1C(=O)N[C@@H]1C[C@@H]1F [Cpd 130, 4-[7-(3-cyanooxetan-3-yl)imidazo[1,2-a]pyridin-3-yl]-2-(difluoromethoxy)-N-[(1R,2S)-2-fluorocyclopropyl]-6-methoxy-benzamide]	100 to 1000	> 500	> 500
COc1cc(-c2cnc3cc(C(F)(F)CO)ccn23)cc(OC(F)F)c1C(=O)NC1CC1 [Cpd 136, N-cyclopropyl-4-[7-(1,1-difluoro-2-hydroxy-ethyl)imidazo[1,2-a]pyridin-3-yl]-2-(difluoromethoxy)-6-methoxy-benzamide]	100 to 1000	> 500	100 to 500
COc1cc(-c2cnc3cc(C(C)O)ccn23)cc(OC(F)F)c1C(=O)NC1CC1 (stereo not drawn) [Cpd 140, N-cyclopropyl-2-(difluoromethoxy)-4-[7-(1-hydroxyethyl)imidazo[1,2-a]pyridin-3-yl]-6-methoxy-benzamide]	1000 to 5000	100 to 500	100 to 500
COc1cc(-c2cnc3cc(C(C)N4CCCCC4)ccn23)cc(OC(F)F)c1C(=O)NC1CC1 (stereo not drawn) [Cpd 146, N-cyclopropyl-2-(difluoromethoxy)-6-methoxy-4-[7-[1-(1-piperidyl)ethyl]imidazo[1,2-a]pyridin-3-yl]benzamide]	1000 to 5000	> 500	> 500
COc1cc(-c2cnc3cc(C(C)(C)CN4CCOCC4)ccn23)cc(OC(F)F)c1C(=O)NC1CC1 [Cpd 160, N-cyclopropyl-2-(difluoromethoxy)-4-[7-(1,1-dimethyl-2-morpholino-ethyl)imidazo[1,2-a]pyridin-3-yl]-6-methoxy-benzamide]	100 to 1000	> 500	> 500
COc1cc(-c2cnc3cc(C4CCOCC4)c(F)cn23)cc(OC(F)F)c1C(=O)NC1CC1 [Cpd 166, N-cyclopropyl-2-(difluoromethoxy)-4-(6-fluoro-7-tetrahydropyran-4-yl-imidazo[1,2-a]pyridin-3-yl)-6-methoxy-benzamide]	100 to 1000	> 500	100 to 500
COc1cc(-c2cnc3cc(C4CCC4)c(F)cn23)cc(OC(F)F)c1C(=O)NC1CC1 [Cpd 168, 4-(7-cyclobutyl-6-fluoro-imidazo[1,2-a]pyridin-3-yl)-N-cyclopropyl-2-(difluoromethoxy)-6-methoxy-benzamide]	100 to 1000	100 to 500	10 to 100
COc1cc(-c2cnc3cc(C4(O)CCOCC4)ccn23)cc(OC(F)F)c1C(=O)NC1CC1 [Cpd 170, N-cyclopropyl-2-(difluoromethoxy)-4-[7-(4-hydroxytetrahydropyran-4-yl)imidazo[1,2-a]pyridin-3-yl]-6-methoxy-benzamide]	1000 to 5000	> 500	> 500
COc1cc(-c2cnc3cc(C4CCCN4C)ccn23)cc(OC(F)F)c1C(=O)NC1CC1 (stereo not drawn) [Cpd 171, N-cyclopropyl-2-(difluoromethoxy)-6-methoxy-4-[7-(1-methylpyrrolidin-2-yl)imidazo[1,2-a]pyridin-3-yl]benzamide]	1000 to 5000	> 500	> 500

Next, values leading:

EC50 [1] [nM]	IC50 (SIK1) [nM]	IC50 (SIK2) [nM]	Structure (SMILES)
100 to 1000	> 500	> 500	COc1cc(-c2cnc3cc(C(C)(C)C#N)ccn23)cc(OC(F)F)c1C(=O)N1CC(F)(F)C1 [Cpd 69, 2-[3-[4-(3,3-difluoroazetidine-1-carbonyl)-3-(difluoromethoxy)-5-methoxy-phenyl]imidazo[1,2-a]pyridin-7-yl]-2-methyl-propanenitrile]
100 to 1000	> 500	> 500	COc1cc(-c2cnc3cc(C(C)(C)C#N)ccn23)cc(OC(F)F)c1C(=O)NCC(F)F [Cpd 70, 4-[7-(1-cyano-1-methyl-ethyl)imidazo[1,2-a]pyridin-3-yl]-N-(2,2-difluoroethyl)-2-(difluoromethoxy)-6-methoxy-benzamide]
100 to 1000	> 500	> 500	COc1cc(-c2cnc3cc(C(C)(C)C#N)ccn23)cc(OC(F)F)c1C(=O)N1CC(C#N)C1 [Cpd 77, 1-[4-[7-(1-cyano-1-methyl-ethyl)imidazo[1,2-a]pyridin-3-yl]-2-(difluoromethoxy)-6-methoxy-benzoyl]azetidine-3-carbonitrile]
100 to 1000	> 500	100 to 500	COc1cc(-c2cnc3cc(C(C)(C)C#N)ccn23)cc(OC(F)F)c1C(=O)N[C@@H]1C[C@@H]1F [Cpd 79, 4-[7-(1-cyano-1-methyl-ethyl)imidazo[1,2-a]pyridin-3-yl]-2-(difluoromethoxy)-N-[(1R,2S)-2-fluorocyclopropyl]-6-methoxy-benzamide]
1000 to 5000	> 500	> 500	COc1cc(-c2cnc3cc(C(C)(C)CN)ccn23)cc(OC(F)F)c1C(=O)NC1CC1 [Cpd 93, 4-[7-(2-amino-1,1-dimethyl-ethyl)imidazo[1,2-a]pyridin-3-yl]-N-cyclopropyl-2-(difluoromethoxy)-6-methoxy-benzamide]
100 to 1000	> 500	> 500	COc1cc(-c2cnc3cc(C(C)(C)C#N)ccn23)cc(OC(F)F)c1C(=O)N1CC(F)C1 [Cpd 96, 2-[3-[3-(difluoromethoxy)-4-(3-fluoroazetidine-1-carbonyl)-5-methoxy-phenyl]imidazo[1,2-a]pyridin-7-yl]-2-methyl-propanenitrile]
100 to 1000	> 500	> 500	COc1cc(-c2cnc3cc(C(C)(C)N)ccn23)cc(OC(F)F)c1C(=O)NC1CC1 [Cpd 106, 4-[7-(1-amino-1-methyl-ethyl)imidazo[1,2-a]pyridin-3-yl]-N-cyclopropyl-2-(difluoromethoxy)-6-methoxy-benzamide]
100 to 1000	> 500	> 500	CCOC(C)(C)c1ccn2c(-c3cc(OC)c(C(=O)NC4CC4)c(OC(F)F)c3)cnc2c1 [Cpd 128, N-cyclopropyl-2-(difluoromethoxy)-4-[7-(1-ethoxy-1-methyl-ethyl)imidazo[1,2-a]pyridin-3-yl]-6-methoxy-benzamide]
100 to 1000	> 500	> 500	CCC(C)(O)c1ccn2c(-c3cc(OC)c(C(=O)NC4CC4)c(OC(F)F)c3)cnc2c1 (stereo not drawn) [Cpd 137, N-cyclopropyl-2-(difluoromethoxy)-4-[7-(1-hydroxy-1-methyl-propyl)imidazo[1,2-a]pyridin-3-yl]-6-methoxy-benzamide]
100 to 1000	> 500	> 500	COc1cc(-c2cnc3cc(C(C)(O)C4CC4)ccn23)cc(OC(F)F)c1C(=O)NC1CC1 (stereo not drawn) [Cpd 138, N-cyclopropyl-4-[7-(1-cyclopropyl-1-hydroxy-ethyl)imidazo[1,2-a]pyridin-3-yl]-2-(difluoromethoxy)-6-methoxy-benzamide]
100 to 1000	> 500	> 500	COc1cc(-c2cnc3cc(C(C)(C)CO)ccn23)cc(OC(F)F)c1C(=O)NC1CC1 [Cpd 150, N-cyclopropyl-2-(difluoromethoxy)-4-[7-(2-hydroxy-1,1-dimethyl-ethyl)imidazo[1,2-a]pyridin-3-yl]-6-methoxy-benzamide]
